Experiments:
[1] = tested on: glycogen synthase activity in HEK293 cells; assay: Glycogen synthase (GS) assay in HEK293 cells; format: cell-based, human; conditions: HEK293 cells, 40 mM
Method: (§1) Cells on 10 cm dishes (Human Embryonic Kidney (HEK) 293 cells, L6 rat myocytes, or 3T3 mouse adipocytes) were treated with different concentrations of GSK3-inhibitors or DMSO vehicle for 90 min. Incubation medium was removed and cells were washed with ice-cold phosphate-buffered saline (PBS) prior to lysis on ice in 50 mM HEPES, pH 7.5, 10 mM EDTA, 100 mM NaF, 5 mM DTT, protease inhibitor cocktail (Sigma). After a freeze/thaw cycle the samples are sonicated for 10 sec and centrifuged at 15,000 g for 10 min at 4° C. Lysate supernatants were snap-frozen on liquid nitrogen and stored at −80° C. Lysates were assayed for glycogen synthase activity in buffer (50 mM Tris-HCl, pH 7.8, 20 mM EDTA, 25 mM NaF, 5 mM DTT, 1% glycogen, 0.3 mM UDP-glucose and 0.06 μCi of [^14C]-UDP-glucose in the presence of 0.1 or 10 mM glucose-6-phosphate. The reaction was carried out for 30 min at 30° C. 70 μL of the reaction mixture (total volume 90 μL) were transferred to a GFC 96-well filter plate (bottom sealed with foil), containing 140 μL 96% ethanol. The GFC plate was incubated for 1 h on ice and than washed with 66% ethanol. To each well 100 μL scintillant liquid was added and the radioactivity of the samples was measured using a scintillation counter (Topcount, HP). Data are expressed as -fold increase in glycogen synthase activity ratios over those of control samples.

[2] = tested on: β-catenin-LEF/TCF transcriptional activity in HEK293 cells; assay: β-Catenin-LEF/TCF regulated reporter gene assay; format: cell-based, human; conditions: LiCl
Source text: Furthermore, the effect of compound XIV on the β-catenin-dependent transcriptional activity, as measured in a luciferase based reporter gene assay, was studied.
HEK293 cells were transfected with either β-catenin-LEF/TCF-sensitive or β-catenin-LEF/TCF-insensitive reporter vector (Upstate Biotechnology, Inc.) using Lipofectamine Plus reagent (GibcoBRL) according to the manufacturer's instructions. The next day, cells were trypsinized, washed into serum-free medium, counted and seeded at 40,000 cells per well in a 96-well plate. Subsequent to cell attachment, LiCl or GSK-3 inhibitor compound were added to the medium to the required concentrations. Control cells were DMSO vehicle treated. 16 h after inhibitor addition, cells were analyzed for luciferase activity using the Steady-Glo Luciferase assay system (Promega) according to the manufacturer's instructions.

[3] = tested on: glycogen synthase activity in 3T3 mouse adipocytes; assay: Glycogen synthase (GS) assay in 3T3 mouse adipocytes; format: cell-based; conditions: 3T3 cells, 40 mM
Method: Mouse pre-adipocytes 3T3-F442A were seeded at 9×10^5 cells per 10 cm dish in DMEM 10% FCS, containing penicillin/streptomycin. When 90% confluent, the same medium was supplemented with 1 μg/mL insulin. After 3-5 days (when most cells were differentiated) insulin was removed and 4 days later the cells were ready to use.
as §1

[Cl-].[Li+] [LiCl, reference compound] was tested, and the “Fold induction of GS activity” value [1] was 3.7 fold, the β-catenin-dependent luciferase activity [2] was “massive induction” and the “Fold induction of GS activity” value [3] was 2 fold.

From patent US20080318954A1, “Compounds” (Cyclacel Limited, priority 2004, published 2008)
